Data as given in PubChem BioAssay AID1963961 (Molecular Pharmacology Branch, DTP, NCI, 2024).
“And” between values parts separate entries of the source, which are not always exact repeats. Equal values may be shown once.

System: K98450-129-R-PDC multicell spheroids, viability
Experiment: Anticancer human tumor K98450-129-R-PDC patient-derived colon adenocarcinoma cell line growth inhibition [PI3K]
Conditions: for viability, T/C: stronger effect = lower value
How it was run: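 Agents were dosed from a top concentration near clinical Cmax (otherwise 10 microM) in half-log decrements, alone or combined with PI3K inhibitors. The spheroids contain tumor cells plus endothelial (HUVEC) and MSC stroma; viability is measured.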
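Note: spheroids exposed to agents for seven days before read-out.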

With `CC1(C)CCC(Nc2ncc(C(F)(F)F)c(-c3c[nH]c4c(P(C)(C)=O)c(C#N)ccc34)n2)CN1` (stereo not given) + CC(Nc1ccc2c(c1)OCCn1cc(N3C(=O)OCC3C(F)F)nc1-2)C(N)=O the IC50 (curve of first compound, second compound 0.00316 µM) was > 10 µM, the IC50 (curve of first compound, second compound 0.01 µM) was > 10 µM and the IC50 (curve of first compound, second compound 0.0316 µM) was > 10 µM. The IC50 (curve of first compound, second compound 0.1 µM) was > 10 µM, the IC50 (curve of first compound, second compound 0.316 µM) was > 10 µM and the IC50 (curve of first compound, second compound 1 µM) was > 10 µM. It also gave a viability, T/C (second compound 0.00316 µM, first compound 0.0316 µM) of 108%, a viability, T/C (second compound 0.00316 µM, first compound 0.1 µM) of 103% and a viability, T/C (second compound 0.00316 µM, first compound 0.316 µM) of 95.8%. It also gave a viability, T/C (second compound 0.00316 µM, first compound 1 µM) of 67.7%, a viability, T/C (second compound 0.00316 µM, first compound 3.16 µM) of 64.1% and a viability, T/C (second compound 0.00316 µM, first compound 10 µM) of 63.8%. For the same compound, the viability, T/C (second compound 0.01 µM, first compound 0.0316 µM) was 116%, the viability, T/C (second compound 0.01 µM, first compound 0.1 µM) was 98.2% and the viability, T/C (second compound 0.01 µM, first compound 0.316 µM) was 92.7%. The viability, T/C (second compound 0.01 µM, first compound 1 µM) was 68.9%, the viability, T/C (second compound 0.01 µM, first compound 3.16 µM) was 67.2% and the viability, T/C (second compound 0.01 µM, first compound 10 µM) was 62.2%. It also gave a viability, T/C (second compound 0.0316 µM, first compound 0.0316 µM) of 116%, a viability, T/C (second compound 0.0316 µM, first compound 0.1 µM) of 109% and a viability, T/C (second compound 0.0316 µM, first compound 0.316 µM) of 81.5%. For the same compound, the viability, T/C (second compound 0.0316 µM, first compound 1 µM) was 66.8%, the viability, T/C (second compound 0.0316 µM, first compound 3.16 µM) was 69.3% and the viability, T/C (second compound 0.0316 µM, first compound 10 µM) was 65.5%. The viability, T/C (second compound 0.1 µM, first compound 0.0316 µM) was 105%, the viability, T/C (second compound 0.1 µM, first compound 0.1 µM) was 107% and the viability, T/C (second compound 0.1 µM, first compound 0.316 µM) was 82.6%. The viability, T/C (second compound 0.1 µM, first compound 1 µM) was 66.9%, the viability, T/C (second compound 0.1 µM, first compound 3.16 µM) was 67.8% and the viability, T/C (second compound 0.1 µM, first compound 10 µM) was 61.2%. It also gave a viability, T/C (second compound 0.316 µM, first compound 0.0316 µM) of 100%, a viability, T/C (second compound 0.316 µM, first compound 0.1 µM) of 101% and a viability, T/C (second compound 0.316 µM, first compound 0.316 µM) of 85.4%. It also gave a viability, T/C (second compound 0.316 µM, first compound 1 µM) of 69.3%, a viability, T/C (second compound 0.316 µM, first compound 3.16 µM) of 66.7% and a viability, T/C (second compound 0.316 µM, first compound 10 µM) of 60.7%. It also gave a viability, T/C (second compound 1 µM, first compound 0.0316 µM) of 91.9%, a viability, T/C (second compound 1 µM, first compound 0.1 µM) of 90.1% and a viability, T/C (second compound 1 µM, first compound 0.316 µM) of 79.1%. The viability, T/C (second compound 1 µM, first compound 1 µM) was 67.5%, the viability, T/C (second compound 1 µM, first compound 3.16 µM) was 69.6% and the viability, T/C (second compound 1 µM, first compound 10 µM) was 60.6%.
`Cn1ncc(Cl)c1-c1cc(C(=O)NC(CN)Cc2cccc(F)c2)sc1Cl` (stereo not given) was tested, and the viability, T/C (compound 0.0316 µM) was 108% [middle of 4 runs], the viability, T/C (compound 0.1 µM) was 98.9% and 101% (2×) and 95.5% and the viability, T/C (compound 0.316 µM) was 107% [middle of 4 runs]. The viability, T/C (compound 1 µM) was 98.2% [middle of 4 runs], the viability, T/C (compound 3.16 µM) was 92.7% [middle of 4 runs] and the IC50 (curve of compound) was > 10 µM.
For `CNC(=O)c1ccc(N2C(=S)N(c3ccc(C#N)c(C(F)(F)F)c3)C(=O)C2(C)C)cc1F`, the viability, T/C (compound 0.0316 µM) was 105% (2×) and 88.4% and 94.7%, the viability, T/C (compound 0.1 µM) was 104% (2×) and 91.1% and 96.9% and the viability, T/C (compound 0.316 µM) was 102% (2×) and 88.4% and 109%. The viability, T/C (compound 1 µM) was 102% [middle of 4 runs], the viability, T/C (compound 3.16 µM) was 107% [middle of 4 runs] and the viability, T/C (compound 10 µM) was 113% and 111% (2×) and 90%. For the same compound, the IC50 (curve of compound) was > 10 µM.
